Results from patent EP3365068B1, “COSMETIC COMPOSITIONS FOR SKIN WHITENING” (Lumene Oy, priority 2015, dated 2017).

Tests used:
[1] = system: co-culture of NHEM and normal human epidermal keratinocytes (NHEK); test: Melanocyte dendricity under stimulated condition (IBMX, immunofluorescent labeling and image analysis); type: cell-based; settings: tested at 0.025 µg/ml, IBMX 200 µM, 72 hours, read-out: % of inhibition of the formation of dendrites by the melanocytes
Description: Two further assays were carried out to evaluate the whitening effect of the powder, i.e. melanin synthesis in NHEM stimulated by […] and melanocyte dendricity in a co-culture of NHEM and normal human epidermal keratinocytes (NHEK) in presence of IBMX (a melanocyte dendricity stimulating agent) using in situ immunofluorescent labeling and image analysis. As reference substances in these tests lipoic acid and vincristine, respectively, were used.
More specifically, the effect of the compound was evaluated on the following parameters: • 1. Activity of tyrosinase enzyme extracted from NHEM (acellular assay). • 2. Melanin synthesis in NHEM stimulated by […]. • 3. Melanocyte dendricity in a co-culture of NHEM and normal human epidermal keratinocytes (NHEK) in presence of IBMX (a melanocyte dendricity stimulating agent) using in situ immunofluorescent labeling and image analysis.
For the tyrosinase activity assay the following concentrations were tested: 0.33, 1, 3, 9, 27 and 81 mg/ml (the spray-dried cloudberry powder was dissolved in assay buffer). […]
Images were acquired of the wells (10 photos per well). The labeling was quantified by the measurement of the dendrite fluorescence area normalized to the total number of melanocytes.

[2] = system: normal human epidermal melanocytes (NHEM); test: Melanin synthesis under stimulated condition (L-tyrosine-induced, OD at 405 nm); type: cell-based; settings: tested at 5 µg/ml, L-tyrosine 1 mM, 10 days
Description: More specifically, the effect of the compound was evaluated on the following parameters: • 1. […] Melanin synthesis in NHEM stimulated by […]. • 3. […] For the tyrosinase activity assay the following concentrations were tested: 0.33, 1, 3, 9, 27 and 81 mg/ml (the spray-dried cloudberry powder was dissolved in assay buffer). For the melanin synthesis and melanocyte dendricity assay the following concentrations were tested: 0.33, 1 and 3 mg/ml (the spray-dried cloudberry powder was dissolved in culture medium). Melanocytes were seeded in 24-well plates and cultured in their culture medium for 24 hours. The medium was then replaced by culture medium containing or not (stimulated control) the inducer (L-Tyrosine) and the test compound of the reference (lipoic acid at 5 µg/ml). […] In parallel, a non-stimulated control was performed. Each experimental condition was performed in n=3. At the end of incubation, melanin was extracted by cell lysis using a 0.5 N NaOH solution. The optical density (OD) of each experimental point was measured at 405 nm and melanin quantity was calculated using melanin standards. Results were expressed in µg/ml of melanin and in percentage of inhibition compared to control.

With `CC[C@]1(O)C[C@H]2CN(CCc3c([nH]c4ccccc34)[C@@](C(=O)OC)(c3cc4c(cc3OC)N(C=O)[C@H]3[C@@](O)(C(=O)OC)[C@H](OC(C)=O)[C@]5(CC)C=CCN6CC[C@]43[C@@H]65)C2)C1` [vincristine] the inhibition at 0.025 µg/mL [1] was 175%.
In the case of `O=C(O)CCCC[C@@H]1CCSS1` (racemic) [lipoic acid], the “% of inhibition of L-tyrosine-induced melanin synthesis” value [2] is reported as 108%.
